# Measured values taken from PubChem BioAssay AID1259407 (Chemical Carcinogenesis Research Information System (CCRIS), 2018).
# Active and inactive are the calls of the source. No rule for the calls is given here.
# Test system: CCRIS mutagenicity, Ames/micronucleus/aberration tests
# Test: CCRIS mutagenicity studies
# [1] = Test System: AMES SALMONELLA TYPHIMURIUM, Strain/Indicator: TA98, Metabolic Activation: NONE, Method: STANDARD PLATE
# [2] = Test System: AMES SALMONELLA TYPHIMURIUM, Strain/Indicator: TA100, Metabolic Activation: NONE, Method: STANDARD PLATE
# [3] = Test System: AMES SALMONELLA TYPHIMURIUM, Strain/Indicator: TA100, Metabolic Activation: RAT, LIVER, S-9, AROCLOR 1254, Method: STANDARD PLATE
# [4] = Test System: AMES SALMONELLA TYPHIMURIUM, Strain/Indicator: TA1535, Metabolic Activation: NONE, Method: STANDARD PLATE
# [5] = Test System: AMES SALMONELLA TYPHIMURIUM, Strain/Indicator: TA1535, Metabolic Activation: RAT, LIVER, S-9, AROCLOR 1254, Method: STANDARD PLATE
# [6] = Test System: AMES SALMONELLA TYPHIMURIUM, Strain/Indicator: TA1537, Metabolic Activation: NONE, Method: STANDARD PLATE
# [7] = Test System: AMES SALMONELLA TYPHIMURIUM, Strain/Indicator: TA1537, Metabolic Activation: RAT, LIVER, S-9, AROCLOR 1254, Method: STANDARD PLATE
structure (smiles),measurement,setting,value
Cc1ccc(C(C)(C)C)c(O)c1C(O)c1ncc([N+](=O)[O-])n1C (stereo not drawn),mutagenic call,[1],inactive; negative
same,mutagenic call,"Test System: AMES SALMONELLA TYPHIMURIUM, Strain/Indicator: TA 98, Metabolic Activation: RAT, LIVER, S-9, AROCLOR 1254, Method: STANDARD PLATE",inactive; negative
same,mutagenic call,[2],inactive; negative
same,mutagenic call,[3],inactive; negative
same,mutagenic call,[4],inactive; negative
same,mutagenic call,[5],inactive; negative
same,mutagenic call,[6],inactive; negative
same,mutagenic call,[7],inactive; negative
same,mutagenic call,"Test System: AMES SALMONELLA TYPHIMURIUM, Strain/Indicator: TA1538, Metabolic Activation: NONE, Method: STANDARD PLATE",inactive; negative
same,mutagenic call,"Test System: AMES SALMONELLA TYPHIMURIUM, Strain/Indicator: TA1538, Metabolic Activation: RAT, LIVER, S-9, AROCLOR 1254, Method: STANDARD PLATE",inactive; negative
COc1ccc(NC(=O)c2csc([N+](=O)[O-])c2)cc1,mutagenic call,[1],active; positive
same,mutagenic call,[2],active; positive
ClC(Br)Br,mutagenic call,"End Point: IN VITRO CHROMOSOMAL ABERRATIONS, Test System: CHINESE HAMSTER LUNG FIBROBLAST CELLS (CHL/IU), Metabolic Activation: RAT, LIVER, S-9, PHENOBARBITAL AND 5,6-BENZOFLAVONE",inactive; negative; authors describe as weakly positive
same,mutagenic call,"End Point: IN VITRO CHROMOSOMAL ABERRATIONS, Test System: CHO-LB CELLS, Metabolic Activation: NONE",inactive; negative
same,mutagenic call,"End Point: IN VIVO MICRONUCLEUS, Test System: BONE MARROW POLYCHROMATIC ERYTHROCYTES, Species: MOUSE, Strain/Sex: DDY/MALE, Route: IP",inactive; negative
same,mutagenic call,"Test System: AMES SALMONELLA TYPHIMURIUM, Strain/Indicator: RSJ100, Metabolic Activation: NONE, Method: STANDARD PLATE",active; positive
same,mutagenic call,"Test System: AMES SALMONELLA TYPHIMURIUM, Strain/Indicator: TA98, Metabolic Activation: HAMSTER, LIVER, S-9, AROCLOR 1254 (10%), Method: PREINCUBATION",inactive; negative
same,mutagenic call,"Test System: AMES SALMONELLA TYPHIMURIUM, Strain/Indicator: TA98, Metabolic Activation: HAMSTER, LIVER, S-9, AROCLOR 1254, Method: PREINCUBATION",inactive; negative
same,mutagenic call,"Test System: AMES SALMONELLA TYPHIMURIUM, Strain/Indicator: TA98, Metabolic Activation: NONE, Method: PREINCUBATION",inactive; negative
same,mutagenic call,[1],inactive; negative
same,mutagenic call,"Test System: AMES SALMONELLA TYPHIMURIUM, Strain/Indicator: TA98, Metabolic Activation: RAT, LIVER, S-9, AROCLOR 1254 (10%), Method: PREINCUBATION",inactive; negative
same,mutagenic call,"Test System: AMES SALMONELLA TYPHIMURIUM, Strain/Indicator: TA98, Metabolic Activation: RAT, LIVER, S-9, AROCLOR 1254, Method: PREINCUBATION",inactive; negative
same,mutagenic call,"Test System: AMES SALMONELLA TYPHIMURIUM, Strain/Indicator: TA98, Metabolic Activation: RAT, LIVER, S-9, AROCLOR 1254, Method: STANDARD PLATE",active; positive
same,mutagenic call,"Test System: AMES SALMONELLA TYPHIMURIUM, Strain/Indicator: TA100, Metabolic Activation: HAMSTER, LIVER, S-9, AROCLOR 1254 (10%), Method: PREINCUBATION",inactive; negative
same,mutagenic call,"Test System: AMES SALMONELLA TYPHIMURIUM, Strain/Indicator: TA100, Metabolic Activation: HAMSTER, LIVER, S-9, AROCLOR 1254, Method: PREINCUBATION",inactive; negative
same,mutagenic call,"Test System: AMES SALMONELLA TYPHIMURIUM, Strain/Indicator: TA100, Metabolic Activation: NONE, Method: DESICCATOR",active; positive
same,mutagenic call,"Test System: AMES SALMONELLA TYPHIMURIUM, Strain/Indicator: TA100, Metabolic Activation: NONE, Method: FLUCTUATION TEST",inactive; negative
same,mutagenic call,"Test System: AMES SALMONELLA TYPHIMURIUM, Strain/Indicator: TA100, Metabolic Activation: NONE, Method: PREINCUBATION",inactive; negative
same,mutagenic call,[2],inactive; negative
same,mutagenic call,"Test System: AMES SALMONELLA TYPHIMURIUM, Strain/Indicator: TA100, Metabolic Activation: RAT, LIVER, S-9, AROCLOR 1254 (10%), Method: PREINCUBATION",inactive; negative
same,mutagenic call,"Test System: AMES SALMONELLA TYPHIMURIUM, Strain/Indicator: TA100, Metabolic Activation: RAT, LIVER, S-9, AROCLOR 1254, Method: FLUCTUATION TEST",inactive; negative
same,mutagenic call,"Test System: AMES SALMONELLA TYPHIMURIUM, Strain/Indicator: TA100, Metabolic Activation: RAT, LIVER, S-9, AROCLOR 1254, Method: PREINCUBATION",inactive; negative
same,mutagenic call,[3],active; positive
same,mutagenic call,"Test System: AMES SALMONELLA TYPHIMURIUM, Strain/Indicator: TA1535, Metabolic Activation: HAMSTER, LIVER, S-9, AROCLOR 1254 (10%), Method: PREINCUBATION",inactive; negative
same,mutagenic call,"Test System: AMES SALMONELLA TYPHIMURIUM, Strain/Indicator: TA1535, Metabolic Activation: HAMSTER, LIVER, S-9, AROCLOR 1254, Method: PREINCUBATION",inactive; negative
same,mutagenic call,"Test System: AMES SALMONELLA TYPHIMURIUM, Strain/Indicator: TA1535, Metabolic Activation: NONE, Method: PREINCUBATION",inactive; negative
same,mutagenic call,[4],active; positive
same,mutagenic call,"Test System: AMES SALMONELLA TYPHIMURIUM, Strain/Indicator: TA1535, Metabolic Activation: RAT, LIVER, S-9, AROCLOR 1254 (10%), Method: PREINCUBATION",inactive; negative
same,mutagenic call,"Test System: AMES SALMONELLA TYPHIMURIUM, Strain/Indicator: TA1535, Metabolic Activation: RAT, LIVER, S-9, AROCLOR 1254, Method: PREINCUBATION",inactive; negative
same,mutagenic call,[5],active; positive
same,mutagenic call,"Test System: AMES SALMONELLA TYPHIMURIUM, Strain/Indicator: TA1537, Metabolic Activation: HAMSTER, LIVER, S-9, AROCLOR 1254 (10%), Method: PREINCUBATION",inactive; negative
same,mutagenic call,"Test System: AMES SALMONELLA TYPHIMURIUM, Strain/Indicator: TA1537, Metabolic Activation: HAMSTER, LIVER, S-9, AROCLOR 1254, Method: PREINCUBATION",inactive; negative
same,mutagenic call,"Test System: AMES SALMONELLA TYPHIMURIUM, Strain/Indicator: TA1537, Metabolic Activation: NONE, Method: PREINCUBATION",inactive; negative
same,mutagenic call,[6],active; positive
same,mutagenic call,"Test System: AMES SALMONELLA TYPHIMURIUM, Strain/Indicator: TA1537, Metabolic Activation: RAT, LIVER, S-9, AROCLOR 1254 (10%), Method: PREINCUBATION",inactive; negative
same,mutagenic call,"Test System: AMES SALMONELLA TYPHIMURIUM, Strain/Indicator: TA1537, Metabolic Activation: RAT, LIVER, S-9, AROCLOR 1254, Method: PREINCUBATION",inactive; negative
same,mutagenic call,[7],active; positive
same,mutagenic call,"Test System: MOUSE LYMPHOMA, Strain/Indicator: L5178Y (TK+/TK-), Metabolic Activation: NONE, Method: MICROWELL",inactive; negative
same,mutagenic call,"Test System: MOUSE LYMPHOMA, Strain/Indicator: L5178Y (TK+/TK-), Metabolic Activation: NONE, Method: SUSPENSION/PLATE",active; positive
same,mutagenic call,"Test System: MOUSE LYMPHOMA, Strain/Indicator: L5178Y (TK+/TK-), Metabolic Activation: S-9, Method: MICROWELL",active; positive
same,mutagenic call,"Test System: UDS RAT HEPATOCYTES, Strain/Indicator: THY INCORP, Metabolic Activation: NONE, Method: AUTORADIOGRAPHY",inactive; negative
CC(C)[C@@](O)(C(=O)OCC1=CCN2CC[C@@H](O)[C@@H]12)[C@H](C)O,mutagenic call,"Test System: AMES SALMONELLA TYPHIMURIUM, Strain/Indicator: TA100, Metabolic Activation: HAMSTER, LIVER, S-9, PCB, Method: PREINCUBATION",inactive; negative
same,mutagenic call,"Test System: AMES SALMONELLA TYPHIMURIUM, Strain/Indicator: TA100, Metabolic Activation: RAT, LIVER, S-9, PCB, Method: PREINCUBATION",inactive; negative
